Measurements from PubChem BioAssay AID330 (DTP/NCI, 2004).
Several values for one entry are separate records, joined by “and”; a condition that tells them apart may be missing. Equal values may be shown once. Inconclusive results and toxic doses are left out.

System: P388 leukemia ip, CD2F1 mice, survival T/C
Assay: NCI In Vivo Anticancer Drug Screen. Data for tumor model P388 Leukemia (intraperitoneal) in CD2F1 (CDF1) mice
Conditions: endpoint: median survival time, higher = longer survival
How it was run: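 Mice carrying the transplanted tumor received test compound or vehicle. Survival was recorded in each group, and the value is the treated-group measurement divided by that of the vehicle-treated control group.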

[1] = dose: 200.0 mg/kg/injection, schedule: Q01DX009 (ip), vehicle: saline with Tween-80
[2] = dose: 50.0 mg/kg/injection, schedule: Q01DX005 (ip), vehicle: Klucel (hydroxypropylcellulose) (HPC)
[3] = dose: 100.0 mg/kg/injection, schedule: Q01DX005 (ip), vehicle: Klucel (hydroxypropylcellulose) (HPC)
[4] = dose: 200.0 mg/kg/injection, schedule: Q01DX005 (ip), vehicle: Klucel (hydroxypropylcellulose) (HPC)

In the case of Nc1ncnc2c1ncn2C1OC(CO)C(O)C1O (configuration not stated), the T/C (dose: 1.25 mg/kg/injection, schedule: Q03HX016 (ip), vehicle: saline) is reported as 113 % of control, the T/C (dose: 1.56 mg/kg/injection, schedule: Q01DX009 (ip), vehicle: saline) is reported as 116 % of control and the T/C (dose: 2.5 mg/kg/injection, schedule: Q03HX016 (ip), vehicle: saline) is reported as 122 % of control. The T/C (dose: 3.12 mg/kg/injection, schedule: Q01DX009 (ip), vehicle: saline) was 122 % of control, the T/C (dose: 6.25 mg/kg/injection, schedule: Q01DX009 (ip), vehicle: saline) was 119 % of control and 104 % of control and the T/C (dose: 9.0 mg/kg/injection, schedule: Q01DX009 (ip), vehicle: saline with Tween-80) was 114 % of control. For the same compound, the T/C (dose: 12.5 mg/kg/injection, schedule: Q01DX009 (ip), vehicle: saline with Tween-80) was 118 % of control, the T/C (dose: 12.5 mg/kg/injection, schedule: Q01DX009 (ip), vehicle: saline) was 103 % of control and the T/C (dose: 12.5 mg/kg/injection, schedule: Q03HX016 (ip), vehicle: Klucel (hydroxypropylcellulose) (HPC)) was 110 % of control. For the same compound, the T/C (dose: 14.0 mg/kg/injection, schedule: Q01DX009 (ip), vehicle: saline with Tween-80) was 120 % of control, the T/C (dose: 20.0 mg/kg/injection, schedule: Q01DX009 (ip), vehicle: saline) was 103 % of control and the T/C (dose: 20.0 mg/kg/injection, schedule: Q03HX016 (ip), vehicle: saline) was 122 % of control. The T/C (dose: 25.0 mg/kg/injection, schedule: Q01DX009 (ip), vehicle: saline) was 103 % of control, the T/C (dose: 25.0 mg/kg/injection, schedule: Q03HX016 (ip), vehicle: Klucel (hydroxypropylcellulose) (HPC)) was 120 % of control and the T/C (dose: 25.0 mg/kg/injection, schedule: Q04DX003 (ip), vehicle: Klucel (hydroxypropylcellulose) (HPC)) was 105 % of control. The T/C (dose: 25.0 mg/kg/injection, schedule: Q04DX003 (ip), vehicle: saline sonified) was 118 % of control, the T/C (dose: 32.0 mg/kg/injection, schedule: Q01DX009 (ip), vehicle: Klucel (hydroxypropylcellulose) (HPC)) was 100 % of control and 102 % of control and the T/C (dose: 40.0 mg/kg/injection, schedule: Q01DX009 (ip), vehicle: saline) was 115 % of control and 118 % of control. For the same compound, the T/C (dose: 50.0 mg/kg/injection, schedule: Q01DX009 (ip), vehicle: saline sonified) was 123 % of control, the T/C (dose: 50.0 mg/kg/injection, schedule: Q01DX009 (ip), vehicle: saline) was 99 % of control and the T/C (dose: 50.0 mg/kg/injection, schedule: Q04DX003 (ip), vehicle: Klucel (hydroxypropylcellulose) (HPC)) was 97 % of control. For the same compound, the T/C (dose: 50.0 mg/kg/injection, schedule: Q04DX003 (ip), vehicle: saline sonified) was 122 % of control, the T/C (dose: 64.0 mg/kg/injection, schedule: Q01DX009 (ip), vehicle: Klucel (hydroxypropylcellulose) (HPC)) was 102 % of control and 97 % of control and the T/C (dose: 75.0 mg/kg/injection, schedule: Q01DX009 (ip), vehicle: saline sonified) was 95 % of control. The T/C (dose: 75.0 mg/kg/injection, schedule: Q01DX009 (ip), vehicle: saline with Tween-80) was 72 % of control, the T/C (dose: 78.6 mg/kg/injection, schedule: Q01DX005 (ip), vehicle: water) was 106 % of control and the T/C (dose: 78.6 mg/kg/injection, schedule: Q01DX009 (ip), vehicle: water) was 100 % of control. The T/C (dose: 80.0 mg/kg/injection, schedule: Q01DX009 (ip), vehicle: saline) was 122 % of control, the T/C (dose: 100.0 mg/kg/injection, schedule: Q01DX009 (ip), vehicle: saline) was 122 % of control and 73 % of control and the T/C (dose: 100.0 mg/kg/injection, schedule: Q04DX003 (ip), vehicle: Klucel (hydroxypropylcellulose) (HPC)) was 96 % of control. The T/C (dose: 100.0 mg/kg/injection, schedule: Q04DX003 (ip), vehicle: saline sonified) was 110 % of control, the T/C (dose: 118.0 mg/kg/injection, schedule: Q01DX005 (ip), vehicle: water) was 99 % of control and the T/C (dose: 118.0 mg/kg/injection, schedule: Q01DX009 (ip), vehicle: water) was 99 % of control. For the same compound, the T/C (dose: 128.0 mg/kg/injection, schedule: Q01DX009 (ip), vehicle: Klucel (hydroxypropylcellulose) (HPC)) was 101 % of control and 93 % of control, the T/C (dose: 177.0 mg/kg/injection, schedule: Q01DX005 (ip), vehicle: water) was 99 % of control and the T/C (dose: 177.0 mg/kg/injection, schedule: Q01DX009 (ip), vehicle: water) was 111 % of control. For the same compound, the T/C [1] was 115 % of control, the T/C (dose: 200.0 mg/kg/injection, schedule: Q03HX016 (ip), vehicle: Klucel (hydroxypropylcellulose) (HPC)) was 154 % of control and the T/C (dose: 200.0 mg/kg/injection, schedule: Q04DX003 (ip), vehicle: Klucel (hydroxypropylcellulose) (HPC)) was 98 % of control. The T/C (dose: 200.0 mg/kg/injection, schedule: Q04DX003 (ip), vehicle: saline sonified) was 110 % of control, the T/C (dose: 256.0 mg/kg/injection, schedule: Q01DX009 (ip), vehicle: Klucel (hydroxypropylcellulose) (HPC)) was 99 % of control and 88 % of control and the T/C (dose: 264.0 mg/kg/injection, schedule: Q04DX003 (ip), vehicle: saline with Tween-80) was 121 % of control. For the same compound, the T/C (dose: 266.0 mg/kg/injection, schedule: Q01DX005 (ip), vehicle: water) was 115 % of control, the T/C (dose: 266.0 mg/kg/injection, schedule: Q01DX009 (ip), vehicle: saline with Tween-80) was 121 % of control and the T/C (dose: 266.0 mg/kg/injection, schedule: Q01DX009 (ip), vehicle: water) was 113 % of control. The T/C (dose: 400.0 mg/kg/injection, schedule: Q01DX005 (ip), vehicle: water) was 108 % of control, the T/C (dose: 400.0 mg/kg/injection, schedule: Q01DX009 (ip), vehicle: saline with Tween-80) was 121 % of control and the T/C (dose: 400.0 mg/kg/injection, schedule: Q01DX009 (ip), vehicle: saline) was 122 % of control. The T/C (dose: 400.0 mg/kg/injection, schedule: Q01DX009 (ip), vehicle: water) was 117 % of control, the T/C (dose: 400.0 mg/kg/injection, schedule: Q03HX016 (ip), vehicle: Klucel (hydroxypropylcellulose) (HPC)) was 183 % of control and the T/C (dose: 400.0 mg/kg/injection, schedule: Q04DX003 (ip), vehicle: saline with Tween-80) was 117 % of control. The T/C (dose: 512.0 mg/kg/injection, schedule: Q01DX009 (ip), vehicle: Klucel (hydroxypropylcellulose) (HPC)) was 101 % of control and 91 % of control, the T/C (dose: 600.0 mg/kg/injection, schedule: Q01DX009 (ip), vehicle: saline sonified) was 86 % of control and the T/C (dose: 600.0 mg/kg/injection, schedule: Q01DX009 (ip), vehicle: saline with Tween-80) was 111 % of control. For the same compound, the T/C (dose: 900.0 mg/kg/injection, schedule: Q01DX009 (ip), vehicle: saline with Tween-80) was 94 % of control, the T/C (dose: 1000.0 mg/kg/injection, schedule: Q01DX009 (oral), vehicle: saline with Tween-80) was 101 % of control and the T/C (dose: 1.3 micrograms/kg/injection, schedule: Q#A X Z (ip), vehicle: water) was 91 % of control. The T/C (dose: 1500.0 mg/kg/injection, schedule: Q01DX009 (oral), vehicle: saline with Tween-80) was 104 % of control, the T/C (dose: 2000.0 mg/kg/injection, schedule: Q01DX009 (oral), vehicle: saline with Tween-80) was 100 % of control and the T/C (dose: 13.4 micrograms/kg/injection, schedule: Q#A X Z (ip), vehicle: water) was 98 % of control. The T/C (dose: 134.0 micrograms/kg/injection, schedule: Q#A X Z (ip), vehicle: water) was 98 % of control and the T/C (dose: 1340.0 micrograms/kg/injection, schedule: Q#A X Z (ip), vehicle: water) was 100 % of control.

With Cc1cccc(-n2c(-c3ccc(Cl)cc3)cs/c2=N\Nc2nnc(-c3ccccc3)c(-c3ccccc3)n2)c1 the T/C (dose: 100.0 mg/kg/injection, schedule: Q04DX002 (ip), vehicle: saline with Tween-80) was 88 % of control, the T/C (dose: 200.0 mg/kg/injection, schedule: Q04DX002 (ip), vehicle: saline with Tween-80) was 87 % of control and the T/C (dose: 400.0 mg/kg/injection, schedule: Q04DX002 (ip), vehicle: saline with Tween-80) was 89 % of control.

With CCOc1c(N=Nc2ccc(Br)cc2)c(C)nn1C(=S)SC the T/C (dose: 60.0 mg/kg/injection, schedule: Q01DX005 (ip), vehicle: Klucel (hydroxypropylcellulose) (HPC)) was 93 % of control, the T/C (dose: 120.0 mg/kg/injection, schedule: Q01DX005 (ip), vehicle: Klucel (hydroxypropylcellulose) (HPC)) was 92 % of control and the T/C (dose: 240.0 mg/kg/injection, schedule: Q01DX005 (ip), vehicle: Klucel (hydroxypropylcellulose) (HPC)) was 98 % of control.

With CC(C)(C)/C(=N\NC(=O)CCCl)c1ccccc1 the T/C (dose: 50.0 mg/kg/injection, schedule: Q01DX009 (ip), vehicle: saline with Tween-80) was 97 % of control, the T/C (dose: 100.0 mg/kg/injection, schedule: Q01DX009 (ip), vehicle: saline with Tween-80) was 97 % of control and the T/C [1] was 95 % of control.

C(=NCCC[Si]12OCCN(CCO1)CCO2)c1ccccc1 was tested, and the T/C [2] was 105 % of control, the T/C [3] was 98 % of control and the T/C [4] was 102 % of control.

For CC(=O)O[C@H]1CC[C@@]2(C)[C@@H](CC[C@@H]3[C@@H]2CC[C@]2(C)C(=NCCO)CC[C@@H]32)C1, the T/C [2] was 108 % of control, the T/C [3] was 105 % of control and the T/C [4] was 99 % of control.
